In patent US10670605B2, “Cysteine reactive probes and uses thereof” (The Scripps Research Institute, priority 2015, dated 2020):

Tests used:
Test in all cases: Competitive isoTOP-ABPP, cell lysates;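 as to isoTOP-ABPP reactivity profile ratio, Q15084 C190: Heavy/light ratio DMSO over fragment-treated so higher means more cysteine engagement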;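 as to isoTOP-ABPP reactivity profile ratio, Q99873 C109: Heavy/light ratio DMSO over fragment-treated so higher means more cysteine engagement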
Type in all cases: binding
ACAT1 C126 (P24752) = molecular target: T1, ACAT1 C126 (P24752) (Homo sapiens, UniProt P24752); details: 500 μm, in-vitro_ramos_231
T1 sequence (P24752 34-427): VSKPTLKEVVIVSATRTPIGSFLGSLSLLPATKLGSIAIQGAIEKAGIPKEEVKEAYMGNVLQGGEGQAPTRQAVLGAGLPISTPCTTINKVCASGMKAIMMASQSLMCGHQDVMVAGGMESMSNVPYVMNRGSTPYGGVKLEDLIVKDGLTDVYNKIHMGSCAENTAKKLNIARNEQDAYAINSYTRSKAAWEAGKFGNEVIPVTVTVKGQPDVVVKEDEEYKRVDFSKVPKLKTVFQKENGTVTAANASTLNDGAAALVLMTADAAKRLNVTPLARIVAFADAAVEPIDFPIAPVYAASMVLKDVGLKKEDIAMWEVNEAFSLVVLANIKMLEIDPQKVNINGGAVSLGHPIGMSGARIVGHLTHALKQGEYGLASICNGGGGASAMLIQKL

ACAT1 C119 (P24752) = molecular target: T2, ACAT1 C119 (P24752) (Homo sapiens, UniProt P24752); details: 500 μm
T2 sequence (P24752 34-427): T1 sequence (P24752 34-427)

PRMT1 C109 (Q99873) = PRMT1 C109 (Q99873) (Homo sapiens, UniProt Q99873); details: 500 μm;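 also: Heavy/light ratio DMSO over fragment-treated so higher means more cysteine engagement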
Sequence of PRMT1 C109 (Q99873) (Q99873 whole entry, the tested form may be a part): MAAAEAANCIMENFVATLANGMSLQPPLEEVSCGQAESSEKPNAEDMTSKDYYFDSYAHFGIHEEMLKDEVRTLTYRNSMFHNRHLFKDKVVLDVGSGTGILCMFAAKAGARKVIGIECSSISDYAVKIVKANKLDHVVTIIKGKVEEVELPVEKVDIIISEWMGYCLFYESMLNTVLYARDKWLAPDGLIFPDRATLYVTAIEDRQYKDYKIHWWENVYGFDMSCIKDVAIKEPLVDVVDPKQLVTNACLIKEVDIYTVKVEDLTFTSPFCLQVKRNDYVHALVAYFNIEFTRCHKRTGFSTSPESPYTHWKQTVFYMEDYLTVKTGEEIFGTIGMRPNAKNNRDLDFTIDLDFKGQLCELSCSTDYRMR

XPO1 C34 (O14980) = XPO1 C34 (O14980) (Homo sapiens, UniProt O14980); details: 500 μm
Sequence of XPO1 C34 (O14980) (O14980 whole entry): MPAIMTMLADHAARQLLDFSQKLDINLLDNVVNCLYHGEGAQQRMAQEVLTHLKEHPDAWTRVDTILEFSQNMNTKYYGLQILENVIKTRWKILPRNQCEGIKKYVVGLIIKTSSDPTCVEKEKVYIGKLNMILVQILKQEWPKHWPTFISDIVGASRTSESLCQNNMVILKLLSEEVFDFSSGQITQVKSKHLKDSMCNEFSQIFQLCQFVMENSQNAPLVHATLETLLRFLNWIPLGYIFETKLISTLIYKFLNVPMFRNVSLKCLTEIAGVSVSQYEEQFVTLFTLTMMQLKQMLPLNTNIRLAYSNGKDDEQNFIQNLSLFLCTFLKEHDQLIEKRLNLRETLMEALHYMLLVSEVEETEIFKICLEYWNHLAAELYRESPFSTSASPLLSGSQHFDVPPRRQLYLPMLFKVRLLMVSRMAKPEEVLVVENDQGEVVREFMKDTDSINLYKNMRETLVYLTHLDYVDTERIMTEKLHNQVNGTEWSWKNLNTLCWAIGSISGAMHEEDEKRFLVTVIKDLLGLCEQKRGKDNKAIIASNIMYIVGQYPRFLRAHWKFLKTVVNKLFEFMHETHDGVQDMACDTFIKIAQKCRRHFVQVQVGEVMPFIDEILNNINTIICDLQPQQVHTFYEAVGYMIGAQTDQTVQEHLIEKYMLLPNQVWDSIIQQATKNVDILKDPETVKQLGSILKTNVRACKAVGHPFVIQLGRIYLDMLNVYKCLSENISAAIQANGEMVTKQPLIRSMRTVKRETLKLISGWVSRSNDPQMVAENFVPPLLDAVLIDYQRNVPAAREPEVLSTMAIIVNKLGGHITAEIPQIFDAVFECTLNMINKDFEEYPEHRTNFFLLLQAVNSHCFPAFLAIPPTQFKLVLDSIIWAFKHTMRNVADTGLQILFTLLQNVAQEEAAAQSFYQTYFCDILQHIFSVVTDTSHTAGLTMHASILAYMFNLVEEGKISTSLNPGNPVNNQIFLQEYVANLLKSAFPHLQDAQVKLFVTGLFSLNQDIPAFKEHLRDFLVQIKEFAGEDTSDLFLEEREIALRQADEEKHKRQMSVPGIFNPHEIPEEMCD

STAT3 C259 (P40763) = STAT3 C259 (P40763) (Homo sapiens, UniProt P40763); details: 500 μm
Sequence of STAT3 C259 (P40763) (P40763 whole entry, the tested form may be a part): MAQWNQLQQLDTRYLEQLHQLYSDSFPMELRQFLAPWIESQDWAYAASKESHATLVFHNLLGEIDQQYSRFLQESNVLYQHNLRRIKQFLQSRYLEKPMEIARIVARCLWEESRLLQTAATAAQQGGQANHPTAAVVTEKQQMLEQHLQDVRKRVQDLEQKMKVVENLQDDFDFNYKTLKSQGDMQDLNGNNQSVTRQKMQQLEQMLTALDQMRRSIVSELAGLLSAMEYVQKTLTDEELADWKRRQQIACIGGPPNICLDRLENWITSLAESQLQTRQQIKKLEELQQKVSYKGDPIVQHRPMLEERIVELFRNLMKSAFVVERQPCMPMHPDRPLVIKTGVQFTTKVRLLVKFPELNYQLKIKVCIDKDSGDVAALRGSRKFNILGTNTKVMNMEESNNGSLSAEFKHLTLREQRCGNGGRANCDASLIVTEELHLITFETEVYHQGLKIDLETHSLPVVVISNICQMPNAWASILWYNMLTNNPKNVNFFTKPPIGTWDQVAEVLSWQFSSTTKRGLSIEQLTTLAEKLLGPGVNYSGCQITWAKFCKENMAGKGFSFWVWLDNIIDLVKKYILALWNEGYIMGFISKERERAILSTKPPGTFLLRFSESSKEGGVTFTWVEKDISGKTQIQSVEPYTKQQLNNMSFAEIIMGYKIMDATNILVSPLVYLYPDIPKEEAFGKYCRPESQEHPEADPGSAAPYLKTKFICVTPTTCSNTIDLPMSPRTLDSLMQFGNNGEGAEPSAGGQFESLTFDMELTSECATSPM

PDIA6 C190 (Q15084) = molecular target: T3, PDIA6 C190 (Q15084) (Homo sapiens, UniProt Q15084); details: 500 μm;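 also: Heavy/light ratio DMSO over fragment-treated so higher means more cysteine engagement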
T3 sequence (Q15084 20-440): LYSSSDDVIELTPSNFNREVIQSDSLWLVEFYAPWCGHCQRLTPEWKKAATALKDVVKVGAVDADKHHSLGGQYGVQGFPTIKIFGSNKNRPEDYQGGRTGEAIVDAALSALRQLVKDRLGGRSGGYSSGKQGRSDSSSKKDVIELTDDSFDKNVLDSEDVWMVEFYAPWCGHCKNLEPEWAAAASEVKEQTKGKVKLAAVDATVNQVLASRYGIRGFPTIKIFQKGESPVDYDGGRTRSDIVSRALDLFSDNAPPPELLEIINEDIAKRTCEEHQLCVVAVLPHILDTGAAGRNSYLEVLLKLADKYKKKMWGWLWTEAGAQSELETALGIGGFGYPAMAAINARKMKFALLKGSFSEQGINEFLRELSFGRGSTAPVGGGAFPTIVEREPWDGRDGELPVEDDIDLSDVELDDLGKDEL

SMARCC2 C145 (Q8TAQ2) = SMARCC2 C145 (Q8TAQ2) (Homo sapiens, UniProt Q8TAQ2); details: 500 μm
Sequence of SMARCC2 C145 (Q8TAQ2) (Q8TAQ2 whole entry): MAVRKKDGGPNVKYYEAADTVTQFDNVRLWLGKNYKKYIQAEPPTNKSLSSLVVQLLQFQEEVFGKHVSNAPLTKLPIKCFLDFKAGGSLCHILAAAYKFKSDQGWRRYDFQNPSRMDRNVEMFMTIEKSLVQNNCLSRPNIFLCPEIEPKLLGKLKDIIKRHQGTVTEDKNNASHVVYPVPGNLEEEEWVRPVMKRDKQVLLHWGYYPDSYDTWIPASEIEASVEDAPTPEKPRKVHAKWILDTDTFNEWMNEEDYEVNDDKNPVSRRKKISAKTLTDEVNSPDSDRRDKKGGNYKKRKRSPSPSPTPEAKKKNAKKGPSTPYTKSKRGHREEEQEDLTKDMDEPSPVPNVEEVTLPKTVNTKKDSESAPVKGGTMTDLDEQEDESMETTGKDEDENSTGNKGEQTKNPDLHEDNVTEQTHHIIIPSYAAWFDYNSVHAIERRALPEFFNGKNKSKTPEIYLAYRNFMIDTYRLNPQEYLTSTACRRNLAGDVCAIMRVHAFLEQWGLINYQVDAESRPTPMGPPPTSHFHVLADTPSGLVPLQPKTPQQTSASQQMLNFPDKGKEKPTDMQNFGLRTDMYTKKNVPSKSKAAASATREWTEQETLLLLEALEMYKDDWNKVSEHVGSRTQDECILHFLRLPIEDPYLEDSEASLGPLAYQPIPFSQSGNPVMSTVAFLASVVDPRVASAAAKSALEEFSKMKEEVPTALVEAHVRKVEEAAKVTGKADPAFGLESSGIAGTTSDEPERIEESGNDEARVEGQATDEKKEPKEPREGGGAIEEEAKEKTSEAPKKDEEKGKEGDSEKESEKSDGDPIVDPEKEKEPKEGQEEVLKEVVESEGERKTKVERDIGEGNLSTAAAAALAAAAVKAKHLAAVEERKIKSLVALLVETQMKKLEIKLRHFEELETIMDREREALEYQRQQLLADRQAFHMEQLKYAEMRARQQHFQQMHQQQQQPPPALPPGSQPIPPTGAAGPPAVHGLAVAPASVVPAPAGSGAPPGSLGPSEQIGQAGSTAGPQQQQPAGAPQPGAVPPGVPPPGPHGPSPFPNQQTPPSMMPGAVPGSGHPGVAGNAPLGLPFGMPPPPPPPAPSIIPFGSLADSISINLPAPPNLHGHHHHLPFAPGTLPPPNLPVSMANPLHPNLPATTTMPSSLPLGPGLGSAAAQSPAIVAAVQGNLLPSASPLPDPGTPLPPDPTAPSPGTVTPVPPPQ

XPO1 C528 (O14980) = XPO1 C528 (O14980) (Homo sapiens, UniProt O14980); details: 500 μm
Sequence of XPO1 C528 (O14980) (O14980 whole entry): as the sequence (O14980 whole entry) above

DCUN1D1 C115 (Q96GG9) = DCUN1D1 C115 (Q96GG9) (Homo sapiens, UniProt Q96GG9); details: 500 μm
Sequence of DCUN1D1 C115 (Q96GG9) (Q96GG9 whole entry): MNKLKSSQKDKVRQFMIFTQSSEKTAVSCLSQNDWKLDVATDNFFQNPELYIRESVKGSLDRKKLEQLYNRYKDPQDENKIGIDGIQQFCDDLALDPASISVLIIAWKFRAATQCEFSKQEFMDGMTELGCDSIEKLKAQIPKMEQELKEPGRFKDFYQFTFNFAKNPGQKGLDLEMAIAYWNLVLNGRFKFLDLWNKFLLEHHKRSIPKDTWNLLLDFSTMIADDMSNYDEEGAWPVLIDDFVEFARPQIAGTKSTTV

Row | isoTOP-ABPP reactivity profile ratio, P24752_C126 (ACAT1 C126 (P24752)) | isoTOP-ABPP reactivity profile ratio, P24752_C119 (ACAT1 C119 (P24752); in-vitro_ramos_231) | isoTOP-ABPP reactivity profile ratio, Q99873_C109 (PRMT1 C109 (Q99873); in-vitro_ramos_231) | isoTOP-ABPP reactivity profile ratio, O14980_C34 (XPO1 C34 (O14980); in-vitro_ramos_231) | isoTOP-ABPP reactivity profile ratio, P40763_C259 (STAT3 C259 (P40763); in-vitro_ramos_231) | isoTOP-ABPP reactivity profile ratio, Q15084_C190 (PDIA6 C190 (Q15084); in-vitro_ramos_231) | isoTOP-ABPP reactivity profile ratio, Q8TAQ2_C145 (SMARCC2 C145 (Q8TAQ2); in-vitro_ramos_231) | isoTOP-ABPP reactivity profile ratio, O14980_C528 (XPO1 C528 (O14980); in-vitro_ramos_231) | isoTOP-ABPP reactivity profile ratio, P24752_C119 (ACAT1 C119 (P24752); in-vitro_ramos) | isoTOP-ABPP reactivity profile ratio, Q99873_C109 (PRMT1 C109 (Q99873); in-vitro_ramos) | isoTOP-ABPP reactivity profile ratio, P40763_C259 (STAT3 C259 (P40763); in-vitro_ramos) | isoTOP-ABPP reactivity profile ratio, Q15084_C190 (PDIA6 C190 (Q15084); in-vitro_ramos) | isoTOP-ABPP reactivity profile ratio, O14980_C34 (XPO1 C34 (O14980); in-vitro_ramos) | isoTOP-ABPP reactivity profile ratio, Q96GG9_C115 (DCUN1D1 C115 (Q96GG9); in-vitro_ramos) | isoTOP-ABPP reactivity profile ratio, Q96GG9_C115 (DCUN1D1 C115 (Q96GG9); in-vitro_ramos_231) | isoTOP-ABPP reactivity profile ratio, Q8TAQ2_C145 (SMARCC2 C145 (Q8TAQ2); in-vitro_ramos) | isoTOP-ABPP reactivity profile ratio, O14980_C528 (XPO1 C528 (O14980); in-vitro_ramos) | SMILES
1 | 20.0 | 12.4 | 2.2 | 1.8 | – | – | – | – | – | – | – | – | – | – | – | – | – | CC1CCc2ccccc2N1C(=O)CCl (stereo not drawn) [compound 45]
2 | 0.9 | 0.8 | 0.8 | 1.0 | 1.2 | 0.9 | 1.0 | 0.7 | – | – | – | – | – | – | – | – | – | C=CC(=O)N(c1ccccc1)C1CCCCC1 [compound 46]
3 | 20.0 | 2.1 | 1.0 | 1.2 | – | – | 2.8 | – | – | – | – | – | – | – | – | – | – | O=C(CCl)N1CCc2cc(Br)ccc21 [compound 50]
4 | – | 0.9 | 0.9 | 0.9 | – | 1.0 | – | – | 0.7 | 1.1 | 1.9 | 1.0 | 1.0 | 0.9 | 1.0 | 1.2 | 0.8 | C=CC(=O)N1CCC(Cc2ccccc2)CC1 [compound 53]
